Source: patent publication US12553889B2, “Small molecules targeting the intrinsically disordered structural ensemble of α-synuclein protect against diverse α-synuclein mediated dysfunctions” (The Regents of the University of California, priority 2019, dated 2026)

Test system: αSyn
Assay: αSyn split NanoBit luciferase (Nluc) oligomerization assay
Format: biochemical, human
Conditions: 100 μM compound, 10 μM of each tagged αSyn; for activity in NanoBit complementation αSyn oligomerization assay: full time-course
Description: Ten μM αSyn-LgBiT, 10 μM αSyn-SmBiT, and Hsp70 (at 0, 10, or 30 μM), 1 mM MgCl2 and 1 mM ADP were mixed in PBS at pH 7.4 and incubated at 37° C. in a thermal cycler (BioRad DNA Engine PTC-200). At 0, 3, 6, 12 and 24 hours. The NanoBit luciferase activity was quantified using a NanoFuel® GLOW Assay for Oplophorus Luciferases (NanoLight) according to the manufacturer's instructions and read on SpectraMax L Microplate Reader (Molecular Devices) with an 8 minute delay after the addition of substrate and 1 sec integration time reading each well. The luciferase activity was normalized to the reaction without Hsp70 at 24 hour time point.
• 1. αSyn-LgBiT or LgBiT is mixed with αSyn-SmBiT at 10 μM of each (PBS pH 7.4); • 2. Incubate at 37 degree for 24 hours in PCR machine; • 3. Take 10 μL samples at 0/3/6/12/24 hours; • 4. Luminescence measurement is done using Luminometor (with injector) using h-CTZ (40 uM), 2 sec delay, 3 sec integration. Protocol: • 1. αSyn-LgBiT (10 uM) and αSyn-SmBiT (10 uM) are mixed in PBS buffer (pH 7.4); • 2. The reaction mixture is incubated in 37° C. incubator either being shaken (1000 rpm) or still; • 3. Samples are taken from the reaction at 0/3/12/24/36/48/72/96/120/144 h for ThT and Nluc assays; NLuc Assay:
• 1. Mix fusion proteins in PBS buffer (pH 7.4) to create the following three master mixes:
• 2. Dispense 10 μL protein master mix into 384-well plate (Greiner, 781904) using Mantis; • Col 1 & 23: Positive control • Col & 24: Negative control • Col 3-22: Reactions • 3. […] Seal plates using sticky foil (E&K Scientific T790080); • 5. Incubate the sealed plates at 37° C. with heat blocks above and beneath the sealed plates, use dummy plates around the reaction plate, incubate at 37° C. incubator in room N401 for 0-24 h; Day 2. I. Prepare the Plates and Substrate • 6. Cool the plates at room temp for 30 min after 24-hour incubation; • 7. Spin the plates at 500×g for 1 min; • 8. Make substrate mix (NanoLight Cat #325), keep it in darkness; II. Prepare the Plate Reader • 9. Turn on SpectraMaxL, make sure the aperture is in the right position (96/384 well):
To change: Control>Change Aperture>Lift the top panel>Press down the button and turn it to the right position>Put the panel down • 10. Put the P-injector tube into the H2O bottle, wash the injector: Control>Prime P-injector for 30× injections • 11. Remove the P-injector and leave it in the air, then empty the injector: Control>Prime P-injector for 30× injections; • 12. Put the P-injector from the substrate tube, prime the injector: Control>Prime P-injector for 20× injections III. Read the Plates • 13. Nluc assay: • Sample vol: 10 μl (dispensed on day 1) • Substrate vol: 25 μl (NanoLight Cat #325)
The SpectraMaxL will do two rounds of reads, the first round will inject substrates, the second round will read entire 384-well plate and make sure the interval between inject and read for each well is exactly the same (in this protocol, the interval is 8 min exactly)

Compound | activity in NanoBit complementation αSyn oligomerization assay | impact relative to 576755 in NanoBit complementation assay
CNC(=O)c1cc(O)ccc1O [Compound 583854, 2,5-dihydroxy-N-methylbenzamide] | active | 
CNC(=O)c1cc(O)ccc1N(C)C [Compound 581823, 2-dimethylamino-5-hydroxy-N-methylbenzamide] | active | 
CNC(=O)c1cc(O)ccc1NC [Compound 581858, 2-methylamino-5-hydroxy-N-methylbenzamide] | active | slightly less impact than compound 576755
CNC(=O)c1cc(O)ccc1N [Compound 576755, 2-amino-5-hydroxy-N-methylbenzamide] | active | 
